Laboratory results published in US11992535B2, “Compounds and probes for imaging huntingtin protein” (CHDI Foundation, Inc., priority 2019, dated 2024).
Read-outs that look alike come from different tables or passages of the source.

Target: aggregated MBP-HTT(1-89)Q46-His(6×) (Exonl-Q46) protein (Q46 protein aggregates) (Homo sapiens (Human), UniProt P42858, INS38QQQQQQQQQQQQQQQQQQQQQQQQQ)
Experiment: Q46 Radioligand Binding Assay
Conditions: read-out: Q46_RBA EC50_
Procedure: Q46 Radioligand Binding Assay
For radioligand binding assays (RBA) MBP-HTT(1-89)Q46-His(6×) (“Exonl-Q46”) protein was generated based on a previous publication (Scherzinger et al. Cell, Vol. 90, 549-558, Aug. 8, 1997). For experiments 30 μM MBP-Exonl-Q46 was incubated with 150 μg/mL thrombin in assay buffer (150 mM NaCl, 50 mM Tris pH 8.0) and 2 mM CaCl2 for 16 hours at 37° C. Aggregated Exonl-Q46 was pelleted by centrifugation for 5 minutes at 13,000 rpm in a bench top centrifuge and re-dissolved in the same volume of assay buffer. Test compounds were prepared by titration in DMSO at 11 concentrations from 63 μM to 2 nM. For the RBA, Q46 protein aggregates and test compounds were pre-incubated in assay buffer for 20 minutes at room temperature, in 100 μL/well in a 96-well plate (pp, round bottom). Then, ligand was added in 50 μL/well and incubated for 60 minutes at 37° C. Final assay concentrations were 1 μM to 30 μM test compound, 1 μM Exonl-Q46 protein (equivalent monomer concentration) and 0.3 nM ligand [^3H3-methyl]-5-((5-methoxypyridin-2-yl)methoxy)-2-(pyrazin-2-yl)benzo[d]oxazole. Samples were transferred onto GF/B filter plates and washed 2× with 200 μL PBS using a Filtermate Harvester. After drying filter plates for 1 hour at 55° C., the back of the plates were sealed with foil and 30 μL/well scintillation fluid (Packard MicroScint 40) added, incubated for 15 minutes in the dark and counted in a MicroBeta reader. For analysis, replicate data from independent assay plates were normalized towards 0% and 100% inhibition using control wells of vehicle (0% inhibition) and 1 μM unlabelled [^3H3-methyl]-5-((5-methoxypyridin-2-yl)methoxy)-2-(pyrazin-2-yl)benzo[d]oxazole (100% inhibition). IC50 values were determined with a sigmoidal inhibition model with four variables (top, bottom, slope, IC50) in a global fit using the normalized replicate data.

[1] = displacement of 0.3 nM [3H3-methyl]-5-((5-methoxypyridin-2-yl)methoxy)-2-(pyrazin-2-yl)benzo[d]oxazole from 1 μM Exonl-Q46 aggregates, method calls the values IC50
[2] = same radioligand displacement on Exonl-Q46 aggregates

aggregated MBP-HTT(1-89)Q46-His(6×) (Exonl-Q46) protein (Q46 protein aggregates), sequence (P42858 other isoform, or with tags, fused parts or gaps, stated change not applied): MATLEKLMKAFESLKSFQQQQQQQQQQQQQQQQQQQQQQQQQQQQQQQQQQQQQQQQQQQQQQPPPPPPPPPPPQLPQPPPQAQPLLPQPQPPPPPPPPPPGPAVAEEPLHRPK

| Structure (SMILES) | EC50 [1] [nM] | EC50 [2] [nM] |
| --- | --- | --- |
| COc1ccc(C(=O)Nc2ccc3c(c2)CN(c2ccc(OC)nc2)CC3)nc1 [Example 11, 5-Methoxy-N-[2-(6-methoxypyridin-3-yl)-1,2,3,4-tetrahydroisoquinolin-7-yl]pyridine-2-carboxamide] | 1.3 | < 100 |
| COc1ccc(C(=O)Nc2ccc3c(c2)CN(C(=O)c2ccc(OC)nc2)CC3)nc1 [Example 12] | 1.72 | < 100 |
| COc1ccc(C(=O)N(C)c2ccc3c(c2)CN(C(=O)c2ccc(OC)nc2)CC3)nc1 [Example 13] | 1000 | > 500 |
| COc1ccc(COc2ccc3c(c2)CN(C(=O)c2cn(C)c(=O)cn2)CC3)nc1 [Example 15, 5-{7-[(5-Methoxypyridin-2-yl)methoxy]-1,2,3,4-tetrahydroisoquinoline-2-carbonyl}-1-methyl-1,2-dihydropyrazin-2-one] | 56.8 | < 100 |
| COc1ccc(COc2cc3c(cn2)CCN(C(=O)c2ccc(OC)nc2)C3)nc1 [Example 16, 7-[(5-Methoxypyridin-2-yl)methoxy]-2-(6-methoxypyridine-3-carbonyl)-1,2,3,4-tetrahydro-2,6-naphthyridine] | 39.5 | < 100 |
| COc1ccc(C(=O)N(C)c2ccc3c(c2)CN(c2ccc(OC)nc2)CC3)nc1 [Example 17, 5-Methoxy-N-[2-(6-methoxypyridin-3-yl)-1,2,3,4-tetrahydroisoquinolin-7-yl]-N-methylpyridine-2-carboxamide] | 333 | 100 to 500 |
| COc1ccc(COc2ccc3c(c2)CN(S(=O)(=O)c2ccc(OC)nc2)CC3)nc1 [Example 18, 7-[(5-Methoxypyridin-2-yl)methoxy]-2-[(6-methoxypyridin-3-yl)sulfonyl]-1,2,3,4-tetrahydroisoquinoline] | 390 | 100 to 500 |
| COc1ccc(OCCOc2ccc3c(c2)CN(C(=O)c2ccc(OC)nc2)CC3)nc1 [Example 19, 7-{2-[(5-Methoxypyridin-2-yl)oxy]ethoxy}-2-(6-methoxypyridine-3-carbonyl)-1,2,3,4-tetrahydroisoquinoline] | 37.4 | < 100 |
| COc1ccc(OCc2cn3c(n2)CN(C(=O)c2ccc(OC)nc2)CC3)nc1 [Example 20, 5-Methoxy-2-{[7-(6-methoxypyridine-3-carbonyl)-5H,6H,7H,8H-imidazo[1,2-a]pyrazin-2-yl]methoxy}pyridine] | 1000 | > 500 |
| COc1ccc(COc2cnc3c(c2)CN(C(=O)c2ccc(-n4ccnc4)nc2)CC3)nc1 [Example 24, 6-[6-(1H-Imidazol-1-yl)pyridine-3-carbonyl]-3-[(5-methoxypyridin-2-yl)methoxy]-5,6,7,8-tetrahydro-1,6-naphthyridine] | 2.06 | < 100 |
| C=CCOc1ccc(C(=O)N2CCc3ncc(OCc4ccc(OC)cn4)cc3C2)cn1 [Example 24.1] | 3.01 | < 100 |
| COCCOc1ccc(C(=O)N2CCc3ncc(OCc4ccc(OC)cn4)cc3C2)cn1 [Example 24.2] | – | < 100 |
| COc1ccc(COc2cnc3c(c2)CN(C(=O)c2ccc(OCCF)nc2)CC3)nc1 [Example 24.3] | 4.45 | < 100 |
| COCCn1cc(C(=O)N2CCc3ncc(OCc4ccc(OC)cn4)cc3C2)ccc1=O [Example 24.4] | 43 | < 100 |
| COc1ccc(COc2ccc3c(c2)CN(C(=O)c2ccc(OC)nc2)CCO3)nc1 [Example 25, 7-[(5-Methoxypyridin-2-yl)methoxy]-4-(6-methoxypyridine-3-carbonyl)-2,3,4,5-tetrahydro-1,4-benzoxazepine] | 153 | 100 to 500 |
| COc1ccc(COc2ccc3c(n2)CN(C(=O)c2ccc(OC)nc2)CC3)nc1 [Example 26, 2-[(5-Methoxypyridin-2-yl)methoxy]-7-(6-methoxypyridine-3-carbonyl)-5,6,7,8-tetrahydro-1,7-naphthyridine] | 39.3 | < 100 |
| COc1ccc(Cn2c3c(ccc2=O)CCN(C(=O)c2ccc(OC)nc2)C3)nc1 [Example 26.1] | – | > 500 |
| COc1ccc(COc2cnc3c(c2)CN(c2ccc(OC)cn2)CC3)nc1 [Example 27, 6-(5-Methoxypyridin-2-yl)-3-[(5-methoxypyridin-2-yl)methoxy]-5,6,7,8-tetrahydro-1,6-naphthyridine] | 3.19 | < 100 |

| Structure (SMILES) | EC50 [1] [nM] | EC50 [2] [nM] |
| --- | --- | --- |
| COc1ccc(COc2ccc3c(c2)CN(c2ccc(=O)n(C)n2)CC3)nc1 [Example 27.1] | 13.4 | < 100 |
| COc1ccc(COc2ccc3c(c2)CN(c2ccn(C)c(=O)c2)CC3)nc1 [Example 27.2] | 260 | 100 to 500 |
| COc1ccc(COc2ccc3c(c2)CN(C(=O)c2ccc(OC)nc2)CC3C)nc1 (stereo not shown) [Example 28] | – | < 100 |
| COc1ccc(COc2ccc3c(c2)CN(c2cnn(C)c2)CC3)nc1 [Example 29, 7-[(5-Methoxypyridin-2-yl)methoxy]-2-(1-methyl-1H-pyrazol-4-yl)-1,2,3,4-tetrahydroisoquinoline] | 161 | 100 to 500 |
| COc1ccc(COc2ccc3c(c2)CN(c2ccc(=O)n(C)c2)CC3)nc1 [Example 29.1] | 86 | < 100 |
| COc1ccc(OCCn2cnc3c2CN(C(=O)c2ccc(OC)nc2)CC3)nc1 [Example 30, 2-Methoxy-5-(3-{2-[(5-methoxypyridin-2-yl)oxy]ethyl}-3H,4H,5H,6H,7H-imidazo[4,5-c]pyridine-5-carbonyl)pyridine] | 704 | > 500 |
| COc1ccc(COc2ccc3c(c2)CN(C(=O)c2ccc(OC)nc2)C(C)C3)nc1 (stereo not shown) [Example 31, 7-[(5-Methoxypyridin-2-yl)methoxy]-2-(6-methoxypyridine-3-carbonyl)-3-methyl-1,2,3,4-tetrahydroisoquinoline] | 108 | 100 to 500 |
| CC(=O)N1CCc2ccc(OCc3ccc(O)cn3)cc2C1 [Example 32, 1-{7-[(5-Hydroxypyridin-2-yl)methoxy]-1,2,3,4-tetrahydroisoquinolin-2-yl}ethan-1-one] | 191 | 100 to 500 |
| COc1ccc(COc2ccc3c(c2)CN(C(=O)OCC(C)C)CC3)nc1 [Example 33, 2-Methylpropyl 7-[(5-methoxypyridin-2-yl)methoxy]-1,2,3,4-tetrahydroisoquinoline-2-carboxylate] | 36.5 | < 100 |
| COc1ccc(COc2ccc3c(c2)CN(C(=O)c2ccc(OCCF)nc2)CC3)nc1 [Example 34, (6-(2-Fluoroethoxy)pyridin-3-yl)(7-((5-methoxypyridin-2-yl)methoxy)-3,4-dihydroisoquinolin-2(1H)-yl)methanone] | 2.48 | < 100 |
| COc1ccc(COc2ccc3c(c2)CN(C(=O)c2ccc(=O)n(CCF)c2)CC3)nc1 [Example 34.1] | 5.12 | < 100 |
| C=CCOc1ccc(COc2ccc3c(c2)CN(C(=O)c2ccc(OC)nc2)CC3)nc1 [Example 35, (7-((5-(Allyloxy)pyridin-2-yl)methoxy)-3,4-dihydroisoquinolin-2(1H)-yl)(6-methoxypyridin-3-yl)methanone] | 1.05 | < 100 |
| COc1ccc(C(=O)N2CCc3ccc(OCc4ccc(O)cn4)cc3C2)cn1 [Example 35.1, (7-((5-Hydroxypyridin-2-yl)methoxy)-3,4-dihydroisoquinolin-2(1H)-yl)(6-methoxypyridin-3-yl)methanone] | 8.44 | < 100 |
| COc1ccc(COc2ccc3c(c2)CN(C(=O)c2ccc(OCF)nc2)CC3)nc1 [Example 36, (6-(Fluoromethoxy)pyridin-3-yl)(7-((5-methoxypyridin-2-yl)methoxy)-3,4-dihydroisoquinolin-2(1H)-yl)methanone] | 1.96 | < 100 |
| COc1ccc(C(=O)N2CCc3ccc(OCc4ccc(OCF)cn4)cc3C2)cn1 [Example 37, (7-((5-(Fluoromethoxy)pyridin-2-yl)methoxy)-3,4-dihydroisoquino-lin-2(1H)-yl)(6-methoxypyridin-3-yl)methanone] | 2.6 | < 100 |
| COc1ccc(C(=O)N2CCc3ccc(OCc4ccc(OCCF)cn4)cc3C2)cn1 [Example 38, (7-((5-(2-Fluoroethoxy)pyridin-2-yl)methoxy)-3,4-dihydroisoquino-lin-2(1H)-yl)(6-methoxypyridin-3-yl)methanone] | 1.25 | < 100 |
| COc1ccc(COc2ccc3c(c2)CN(C(=O)c2ccc(=O)[nH]c2)CC3)nc1 [Example 39, 5-(7-((5-Methoxypyridin-2-yl)methoxy)-1,2,3,4-tetrahydroisoquinoline-2-carbonyl)pyridin-2(1H)-one] | 12 | < 100 |
